Experiments:
[1] = system: pigweed; assay: Test A postemergence; type: in vivo, Amaranthus retroflexus
Procedure, shortened: (§1)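 Scoring: eye-based comparison with untreated controls, 0 for no effect through 100 for complete control, at about day 10. Treatments: directed soil spray preemergence; foliar spray postemergence on 2–10 cm plants at the one- to two-leaf stage. Medium: loam soil with sand.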

[2] = system: giant foxtail; assay: Test A postemergence; type: in vivo, Setaria faberii
Procedure, shortened: as §1

[3] = system: morningglory; assay: Test A postemergence; type: in vivo, Ipomoea spp.
Procedure, shortened: as §1

[4] = system: corn; assay: Test C postemergence; type: in vivo, Zea mays
Procedure, shortened: (§2)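 Injury was assessed visually against controls 13 to 15 days after application, with 0 meaning no effect and 100 full control; missing entries are shown as a dash. Preemergence sprays hit seeded loam–sand soil, postemergence sprays hit 1- to 4-leaf plants.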

[5] = system: barnyardgrass; assay: Test A preemergence; type: in vivo, Echinochloa crus-galli
Procedure, shortened: as §1

[6] = system: large (Lg) crabgrass; assay: Test A postemergence; type: in vivo, Digitaria sanguinalis
Procedure, shortened: as §1

[7] = system: lambsquarters; assay: Test C preemergence; type: in vivo, Chenopodium album; conditions: for Lambsquarters plant response rating: preemergence; for Plant response rating, Lambsquarters: Preemergence, 31 g ai/ha, scale 0 to 100, 0 no effect, 100 complete control
Procedure, shortened: as §2

[8] = system: large (Lg) crabgrass; assay: Test C preemergence; type: in vivo, Digitaria sanguinalis; conditions: for Crabgrass, Large plant response rating: preemergence; for Plant response rating, Crabgrass, Large: Preemergence, 31 g ai/ha, scale 0 to 100, 0 no effect, 100 complete control
Procedure, shortened: as §2

[9] = system: corn; assay: Test A postemergence; type: in vivo, Zea mays
Procedure, shortened: as §1

[10] = system: giant foxtail; assay: Test C postemergence; type: in vivo, Setaria faberii
Procedure, shortened: as §2

[11] = system: pigweed; assay: Test A preemergence; type: in vivo, Amaranthus retroflexus; conditions: for Pigweed plant response rating: 0 to 100 scale, 0 no effect, 100 complete control, approx. 10 days
Procedure, shortened: as §1

[12] = system: johnsongrass; assay: Test C preemergence; type: in vivo, Sorghum halepense; conditions: for Johnsongrass plant response rating: preemergence; for Plant response rating, Johnsongrass: Preemergence, 31 g ai/ha, scale 0 to 100, 0 no effect, 100 complete control
Procedure, shortened: as §2

[13] = system: ragweed; assay: Test C preemergence; type: in vivo, Ambrosia elatior; conditions: for Ragweed plant response rating: preemergence; for Plant response rating, Ragweed: Preemergence, 31 g ai/ha, scale 0 to 100, 0 no effect, 100 complete control
Procedure, shortened: as §2

[14] = system: velvetleaf; assay: Test A preemergence; type: in vivo, Abutilon theophrasti
Procedure, shortened: as §1

[15] = system: galium; assay: Test C postemergence; type: in vivo, Galium aparine
Procedure, shortened: as §2

[16] = system: johnsongrass; assay: Test C postemergence; type: in vivo, Sorghum halepense
Procedure, shortened: as §2

[17] = system: kochia; assay: Test C postemergence; type: in vivo, Kochia scoparia
Procedure, shortened: as §2

[18] = system: chickweed; assay: Test C postemergence; type: in vivo, Stellaria media
Procedure, shortened: as §2

[19] = 500 g ai/ha, 0 to 100 scale where 0 is no effect and 100 is complete control
[20] = 125 g ai/ha, 0 to 100 scale where 0 is no effect and 100 is complete control
[21] = 16 g ai/ha, postemergence, visual rating, scale 0 to 100 (0 no effect, 100 complete control), 13 to 15 days
[22] = 125 g ai/ha, postemergence, visual rating, scale 0 to 100 (0 no effect, 100 complete control)
[23] = Postemergence, 62 g ai/ha, scale 0 to 100 (0 no effect, 100 complete control)
[24] = 16 g ai/ha, scale 0 to 100 (0 no effect, 100 complete control)
[25] = 62 g ai/ha, scale 0 (no effect) to 100 (complete control)
[26] = 125 g ai/ha, scale 0 (no effect) to 100 (complete control)
[27] = 1000 g ai/ha, 0 to 100 scale, 0 no effect, 100 complete control
[28] = 16 g ai/ha, postemergence, 0 is no effect, 100 is complete control

N#Cc1cnn(-c2c(C#N)cccc2Oc2ncc(F)cn2)c1 [Compound 111]
Plant response rating, Pigweed [1, 19]: 100
Plant response rating, Foxtail, Giant [2, 20]: 80
Plant response rating, Foxtail, Giant [2, 19]: 90
Plant response rating, Morningglory [3, 19]: 90
Corn plant response rating [4, 21]: 5
Plant response rating, Corn [4, 22]: 15
Plant response rating, Corn [4, 23]: 10
Plant response rating, Barnyardgrass [5, 20]: 90
Barnyardgrass plant response rating ([5]; 500 g ai/ha, 0 to 100 scale, 0 no effect, 100 complete control, approx. 10 days): 100
Plant response rating, Crabgrass, Large [6, 20]: 60
Plant response rating, Crabgrass, Large [6, 19]: 90
Lambsquarters plant response rating [7, 24]: 50
Lambsquarters plant response rating [7, 25]: 100
Lambsquarters plant response rating [7, 26]: 100
Plant response rating, Lambsquarters [7]: 100
Crabgrass, Large plant response rating [8, 24]: 98
Crabgrass, Large plant response rating [8, 25]: 100
Crabgrass, Large plant response rating [8, 26]: 100
Plant response rating, Crabgrass, Large [8]: 100
Plant response rating, Corn [9, 20]: 30
Plant response rating, Corn [9, 19]: 90
Foxtail, Giant plant response rating [10, 21]: 20
Plant response rating, Foxtail, Giant [10, 22]: 65
Plant response rating, Foxtail, Giant [10, 23]: 35
Plant response rating, Pigweed [11, 20]: 100
Pigweed plant response rating ([11]; 500 g ai/ha): 100
Johnsongrass plant response rating [12, 24]: 0
Johnsongrass plant response rating [12, 25]: 25
Johnsongrass plant response rating [12, 26]: 80
Plant response rating, Johnsongrass [12]: 5
Ragweed plant response rating [13, 24]: 10
Ragweed plant response rating [13, 25]: 100
Ragweed plant response rating [13, 26]: 100
Plant response rating, Ragweed [13]: 50
Plant response rating, Velvetleaf [14, 20]: 70
Galium plant response rating [15, 21]: 80
Plant response rating, Galium [15, 22]: 100
Plant response rating, Galium [15, 23]: 90
Johnsongrass plant response rating [16, 21]: 5
Plant response rating, Johnsongrass [16, 22]: 10
Plant response rating, Johnsongrass [16, 23]: 5
Kochia plant response rating [17, 21]: 60
Plant response rating, Kochia [17, 22]: 95
Plant response rating, Kochia [17, 23]: 90
Chickweed plant response rating [18, 21]: 50
Plant response rating, Chickweed [18, 22]: 95
Plant response rating, Chickweed [18, 23]: 75

N#Cc1cn(-c2c(Br)cccc2Oc2ncc(Cl)cn2)nn1 [Compound 116]
Plant response rating, Pigweed [1, 27]: 100
Plant response rating, Foxtail, Giant [2, 27]: 90
Plant response rating, Morningglory [3, 27]: 100
Plant response rating (0 to 100), Corn [4, 28]: 0
Plant response rating, Corn [4, 22]: 5
Plant response rating, Corn [4, 23]: 5
Plant response rating, Barnyardgrass [5, 27]: 90
Plant response rating, Crabgrass, Large [6, 27]: 100
Lambsquarters plant response rating [7, 24]: 10
Lambsquarters plant response rating [7, 25]: 85
Lambsquarters plant response rating [7, 26]: 100
Plant response rating, Lambsquarters [7]: 95
Crabgrass, Large plant response rating [8, 24]: 5
Crabgrass, Large plant response rating [8, 25]: 100
Crabgrass, Large plant response rating [8, 26]: 100
Plant response rating, Crabgrass, Large [8]: 100
Plant response rating, Corn [9, 27]: 60
Plant response rating (0 to 100), Foxtail, Giant [10, 28]: 30
Plant response rating, Foxtail, Giant [10, 22]: 10
Plant response rating, Foxtail, Giant [10, 23]: 40
Pigweed plant response rating ([11]; 1000 g ai/ha): 100
Johnsongrass plant response rating [12, 24]: 0
Johnsongrass plant response rating [12, 25]: 55
Johnsongrass plant response rating [12, 26]: 70
Plant response rating, Johnsongrass [12]: 25
Ragweed plant response rating [13, 24]: 0
Ragweed plant response rating [13, 25]: 45
Ragweed plant response rating [13, 26]: 45
Plant response rating, Ragweed [13]: 5
Velvetleaf plant response rating ([14]; 1000 g ai/ha, 0 to 100 scale, 0 no effect, 100 complete control, approx. 10 days): 100
Plant response rating (0 to 100), Galium [15, 28]: 55
Plant response rating, Galium [15, 22]: 80
Plant response rating, Galium [15, 23]: 80
Plant response rating (0 to 100), Johnsongrass [16, 28]: 0
Plant response rating, Johnsongrass [16, 22]: 15
Plant response rating, Johnsongrass [16, 23]: 0
Plant response rating (0 to 100), Kochia [17, 28]: 70
Plant response rating, Kochia [17, 22]: 95
Plant response rating, Kochia [17, 23]: 90
Plant response rating (0 to 100), Chickweed [18, 28]: 40
Plant response rating, Chickweed [18, 22]: 80
Plant response rating, Chickweed [18, 23]: 55
